Data set [1] deals with Candida albicans. Put plainly: Antifungal activity against Candida albicans SC5314 infected in ICR mouse assessed as median survival time at 0.5 mg/kg, po qd infected with fungus for 2 hrs prior to compound addition for 7 days and measured for 20 days. To be noted: time 20 day. Format: functional.
In data set [2] the test system is Candida albicans. Put plainly: Antifungal activity against Candida albicans 25#. Format: functional.
A short description of data set [3]: Induction of drug resistance in Candida albicans SC5314 assessed as increase in MIC after 26 days (reference value: 0.0313 microg/ml). It counts as functional. As to conditions: SC5314, 624 h, time 26 day.
Data set [4] has as its system Candida albicans. The data set can be described thus: Antifungal activity against Candida albicans Y0109. It counts as functional.
Data set [5] deals with Candida albicans. Put plainly: Antifungal activity against Candida albicans 162. It counts as functional.
Data set [6] relates to Candida albicans. Put plainly: Antifungal activity against Candida albicans 100 infected in ICR mouse assessed as median survival time at 0.25 mg/kg, po qd infected with fungus for 2 hrs prior to compound addition for 7 days and measured for 20 days. To be noted: time 20 day. Format: functional.
The subject of data set [7] is Candida albicans. The data set can be described thus: Antifungal activity against Candida albicans SC5314 incubated for 24 hrs by microbroth dilution method. Format: functional.
Data set [8] concerns Cryptococcus neoformans. Put plainly: Antifungal activity against Cryptococcus neoformans H99 infected in po dosed ICR mouse assessed as increase in survival infected with fungus for 2 hrs prior to compound addition for 7 days and measured for 20 days. It counts as functional, organism-based. As to conditions: dose 0.5-5 mg/kg, time 20.0 day, DDE = dose-dependent effect.
In data set [9] the test system is Cryptococcus neoformans. The data set can be described thus: Antifungal activity against Cryptococcus neoformans H99 infected in ICR mouse assessed as delay in mortality at 0.5 to 5 mg/kg, po qd infected with fungus for 2 hrs prior to compound addition for 7 days and measured for 20 days. To be noted: dose 0.5-5 mg/kg, time 20.0 day. Format: functional, organism-based.

Data set [10] concerns the target Lanosterol 14-alpha demethylase (Candida albicans (strain SC5314 / ATCC MYA-2876) (Yeast), UniProt P10613). The data set can be described thus: Inhibition of CYP51 in Candida albicans SC5314 assessed as ergosterol level at 0.0625 ug/ml measured after 12 hrs by GC-MS analysis (reference value: 72.58%). Also on record: scale not given: the % may be the effect or the level left. As to conditions: dose 0.0625 µg/ml.

The test system of data set [11] is Candida albicans. The data set can be described thus: Inhibition of biofilm formation in Candida albicans SC5314 at 0.5 ug/ml relative to control. Format: functional.
The subject of a further data set is Aspergillus fumigatus. Put plainly: Antifungal activity against Aspergillus fumigatus 7544 infected in ICR mouse assessed as delay in mortality at 20 to 60 mg/kg, po qd infected with fungus for 2 hrs prior to compound addition for 7 days and measured for 20 days. It counts as functional, organism-based. As to conditions: dose 20-60 mg/kg, time 20.0 day.

Converted amounts (≈) assume the structure as drawn. The source made the active and inactive calls. No cut-off for these calls is given here.

Sequence of Lanosterol 14-alpha demethylase (P10613 whole entry): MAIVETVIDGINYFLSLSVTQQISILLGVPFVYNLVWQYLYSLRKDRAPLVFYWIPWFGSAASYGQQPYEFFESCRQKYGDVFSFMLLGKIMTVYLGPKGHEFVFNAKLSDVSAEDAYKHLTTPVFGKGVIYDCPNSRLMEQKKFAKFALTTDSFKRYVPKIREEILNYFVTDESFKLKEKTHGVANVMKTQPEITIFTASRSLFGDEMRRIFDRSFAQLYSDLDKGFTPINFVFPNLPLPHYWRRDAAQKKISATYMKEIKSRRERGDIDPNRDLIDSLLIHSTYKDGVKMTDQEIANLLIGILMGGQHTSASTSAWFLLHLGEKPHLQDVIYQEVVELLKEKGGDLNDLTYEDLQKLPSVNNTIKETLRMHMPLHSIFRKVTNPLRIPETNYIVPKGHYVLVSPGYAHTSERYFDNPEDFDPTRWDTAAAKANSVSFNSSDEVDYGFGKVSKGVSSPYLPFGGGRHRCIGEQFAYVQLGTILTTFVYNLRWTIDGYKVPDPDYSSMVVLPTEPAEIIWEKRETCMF

Usually MIC stands for the lowest concentration found to suppress growth. What is called inhibition is the relative decrease from the control value, in per cent. Turning to `C[C@@H](c1cn(-c2ccc(Cl)cc2F)nn1)[C@](O)(Cn1cncn1)c1ccc(F)cc1F`, the Time with Candida albicans [1] is 17 days; in the data set on Candida albicans [6] it was 14 days. Also, the MIC in the data set with Candida albicans [2] was 16 µg/mL (≈ 35.6 µM); in [3], 0.125 µg/mL; with Candida albicans [4], 0.0156 µg/mL (≈ 0.0348 µM); in the data set on Candida albicans [5], 8 µg/mL (≈ 17.8 µM); in the data set with Candida albicans [7], 0.0625 µg/mL (≈ 0.139 µM). Further, the Activity result in the data set on Cryptococcus neoformans [8] is “Dde”; in [10], 0.76%. The result in the data set with Cryptococcus neoformans [9] and in the data set with Aspergillus fumigatus was Active. Moreover, in the data set on Candida albicans [11], the inhibition at 0.5 µg/mL stood at 80%.

These data come from ChEMBL document CHEMBL5150076, “Discovery of Novel Orally Bioavailable Triazoles with Potent and Broad-Spectrum Antifungal Activity In Vitro and In Vivo” (J Med Chem, 2022).
